Measurements: patent US20110098184A1, “Competitve differntial screeing” (priority 2004, published 2011)
Bridge positions count the residues as written; N and C are the ends. Peptide text beside a SMILES is read from it.

Biological target: human stratum cornium chymotrypsin (hSCC) (Homo sapiens, UniProt P49862)
Test: Mass spectrometric screening of a protein library against immobilized hSCC in the presence of competitor Ecotin
Assay type: binding
Details: library 10 nM per member, competitor Ecotin at 1 nM, 100 nM, 4 hrs incubation, biotinylated hSCC on streptavidin beads
Source text: In this Example, mass spectrometric screening experiments are described. FIGS. 10-13 provide data and calculations obtained during these experiments. Inhibitors of human stratum cornium chymotrypsin (hSCC) were screened from a protein library made of BBI-loop-BLA (See e.g., U.S. patent application Ser. Nos. 10/984,270 and 10/984,410; and PCT Appln. Nos. US04/36976, US04/36979; and US04/36980), all of which are incorporated by reference herein). The protein library consisted of a protein backbone in which three non-consecutive positions were randomized (cysteine constrained) at the N-terminus of the protein. HSCC (screening target) (Swissprot, accession number P49862) was biotinylated and immobilized on streptavidin beads (MagnaBind Beads; Pierce).
HSCC was incubated with a protein library at 10 nM per library member in the presence of a competitor (Ecotin; Sigma) added at 1 nM, 10 nM, and 100 nM concentrations. Following incubation (4 hrs), the beads were washed with incubation buffer to remove nonspecific binders and specific binders were eluted with an elution solution.
The recovered binders were concentrated (vacuum concentration), resuspended in a digestion buffer, reduced, alkylated, and digested with proteolytic enzyme (Lys-c; Roche). The resulting protein digests were analyzed by capillary LC-ESI-MS/MS. […]

Chain of human stratum cornium chymotrypsin (hSCC) (P49862 30-253): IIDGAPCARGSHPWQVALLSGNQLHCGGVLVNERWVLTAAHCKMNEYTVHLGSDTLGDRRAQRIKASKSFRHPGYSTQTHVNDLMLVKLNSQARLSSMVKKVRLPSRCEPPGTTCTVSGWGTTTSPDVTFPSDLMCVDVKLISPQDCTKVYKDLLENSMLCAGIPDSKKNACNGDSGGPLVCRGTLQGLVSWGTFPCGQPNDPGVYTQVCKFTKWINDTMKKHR

binder observed after elution (capillary LC-ESI-MS/MS): observed under all conditions
Structure (SMILES): C[C@@H](O)[C@@H]1NC(=O)[C@@H](NC(=O)[C@@H]2CCCN2)CSSC[C@@H](C(=O)N[C@@H](Cc2ccc(O)cc2)C(=O)NCC(=O)NCC(=O)NCC(=O)N[C@@H](CCCCN)C(=O)O)NC(=O)[C@H](CCC(N)=O)NC(=O)[C@@H]2CCCN2C(=O)[C@@H]2CCCN2C(=O)[C@H](Cc2ccc(O)cc2)NC(=O)[C@H](CO)NC(=O)[C@H](Cc2ccccc2)NC1=O [pj02] (H-PCTFSYPPQCYGGGK-OH; disulfide 2-10 (inferred); N-terminus and C-terminus assumed)
